These are literature values, as cited in paper PMC4780677 (Annual reports in medicinal chemistry, 2012).

For this data set, the system named is mGlu5 receptor. To be noted: cell lines; mGlu5 receptor ago-PAM vs pure PAM.

Each structure is given as a SMILES string.

For the molecule `O=C(NC1CCC1)c1ccc(C#Cc2cccc(F)c2)nc1` [VU0360172], the intrinsic agonist activity entry is “maximal intrinsic agonist activity”.
`O=C(c1ccc(C#Cc2cccc(F)c2)nc1)N1CCC(O)CC1` [VU0361747]: the intrinsic agonist activity entry was “devoid of intrinsic agonist activity”.
